{"source": "ChEMBL document CHEMBL5528040", "about": "“Design and Synthesis of Novel 3-Nitro-1H-1,2,4-triazole-1,2,3-triazole-1,4-disubstituted Analogs as Promising Antitrypanosomatid Agents: Evaluation of In Vitro Activity against Chagas Disease and Leishmaniasis” (J Med Chem, 2024)", "key": {"Trypanosoma cruzi": {"tested_on": "Trypanosoma cruzi", "test": "Antitrypanosomal activity against Trypanosoma cruzi Tulahuen amastigotes transfected with Escherichia coli beta-galactosidase LacZ gene infected in monkey LLC-MK2 cells assessed as inhibition of amastigotes growth incubated for 72 hrs by absorbance based microplate reader analysis", "format": "functional, organism-based", "conditions": "LLC-MK2, 72 h"}, "[1]": {"test": "Cytotoxicity against monkey LLC-MK2 cells incubated for 72 hrs by MTT assay", "format": "toxicity, cell-based, Macaca mulatta", "conditions": "rhesus monkey"}, "[2]": {"test": "Selectivity index, ratio of CC50 for cytotoxicity against monkey LLC-MK2 cells to IC50 for antitrypanosomal activity against Trypanosoma cruzi Tulahuen amastigotes transfected with Escherichia coli beta-galactosidase LacZ gene infected in monkey LLC-MK2 cells", "format": "toxicity, cell-based", "conditions": "read-out: Ratio CC50/IC50"}, "[3]": {"test": "Substrate activity at Trypanosoma cruzi type I nitro reductase assessed as reduction in NADH incubated for 120 sec by spectrophotometric analysis"}, "[4]": {"test": "Mutagenicity in Salmonella typhimurium TA98 assessed as number of revertant colonies at 50 ug per plate incubated for 90 mins by AMES test (reference value: 22.67 +/- 0.58)", "format": "toxicity, Salmonella enterica subsp. enterica serovar Typhimurium", "conditions": "in vivo, 1.5 h, dose 50 µg"}, "[5]": {"test": "Mutagenicity in Salmonella typhimurium TA98 assessed as number of revertant colonies at 150 ug per plate incubated for 90 mins by AMES test (reference value: 22.67 +/- 0.58)", "format": "toxicity, Salmonella enterica subsp. enterica serovar Typhimurium", "conditions": "in vivo, 1.5 h, dose 150 µg"}, "[6]": {"test": "Mutagenicity in Salmonella typhimurium TA98 assessed as number of revertant colonies at 500 ug per plate incubated for 90 mins by AMES test (reference value: 22.67 +/- 0.58)", "format": "toxicity, Salmonella enterica subsp. enterica serovar Typhimurium", "conditions": "in vivo, 1.5 h, dose 500 µg"}, "[7]": {"test": "Mutagenicity in Salmonella typhimurium TA98 assessed as number of revertant colonies at 1500 ug per plate incubated for 90 mins by AMES test (reference value: 22.67 +/- 0.58)", "format": "toxicity, Salmonella enterica subsp. enterica serovar Typhimurium", "conditions": "in vivo, 1.5 h, dose 1500 µg"}, "[8]": {"test": "Mutagenicity in Salmonella typhimurium TA98 assessed as number of revertant colonies at 5000 ug per plate incubated for 90 mins by AMES test (reference value: 22.67 +/- 0.58)", "format": "toxicity, Salmonella enterica subsp. enterica serovar Typhimurium", "conditions": "in vivo, 1.5 h, dose 5000 µg"}, "[9]": {"test": "Mutagenicity in Salmonella typhimurium TA98 assessed as number of revertant colonies at 5000 ug per plate incubated for 90 mins in presence of S9 fraction by AMES test (reference value: 21.00 +/- 1.00)", "format": "toxicity, subcellular, Salmonella enterica subsp. enterica serovar Typhimurium", "conditions": "s9, 1.5 h, dose 5000 µg"}, "[10]": {"test": "Mutagenicity in Salmonella typhimurium TA100 assessed as number of revertant colonies at 5000 ug per plate incubated for 90 mins by AMES test (reference value: 88.00 +/- 2.65)", "format": "toxicity, Salmonella enterica subsp. enterica serovar Typhimurium", "conditions": "in vivo, 1.5 h, dose 5000 µg"}, "[11]": {"test": "Mutagenicity in Salmonella typhimurium TA100 assessed as number of revertant colonies at 1500 ug per plate incubated for 90 mins in presence of S9 fraction by AMES test (reference value: 122.67 +/- 5.03)", "format": "toxicity, subcellular, Salmonella enterica subsp. enterica serovar Typhimurium", "conditions": "s9, 1.5 h, dose 1500 µg"}, "[12]": {"test": "Mutagenicity in Salmonella typhimurium TA100 assessed as number of revertant colonies at 5000 ug per plate incubated for 90 mins in presence of S9 fraction by AMES test (reference value: 122.67 +/- 5.03)", "format": "toxicity, subcellular, Salmonella enterica subsp. enterica serovar Typhimurium", "conditions": "s9, 1.5 h, dose 5000 µg"}, "[13]": {"test": "Mutagenicity in Salmonella typhimurium TA102 assessed as number of revertant colonies at 500 ug per plate incubated for 90 mins by AMES test (reference value: 110.67 +/- 20.15)", "format": "toxicity, Salmonella enterica subsp. enterica serovar Typhimurium", "conditions": "in vivo, 1.5 h, dose 500 µg"}, "[14]": {"test": "Mutagenicity in Salmonella typhimurium TA102 assessed as number of revertant colonies at 1500 ug per plate incubated for 90 mins by AMES test (reference value: 110.67 +/- 20.15)", "format": "toxicity, Salmonella enterica subsp. enterica serovar Typhimurium", "conditions": "in vivo, 1.5 h, dose 1500 µg"}, "[15]": {"test": "Mutagenicity in Salmonella typhimurium TA102 assessed as number of revertant colonies at 50 ug per plate incubated for 90 mins in presence of S9 fraction by AMES test (reference value: 130.00 +/- 6.93)", "format": "toxicity, subcellular, Salmonella enterica subsp. enterica serovar Typhimurium", "conditions": "s9, 1.5 h, dose 50 µg"}, "[16]": {"test": "Mutagenicity in Salmonella typhimurium TA102 assessed as number of revertant colonies at 150 ug per plate incubated for 90 mins in presence of S9 fraction by AMES test (reference value: 130.00 +/- 6.93)", "format": "toxicity, subcellular, Salmonella enterica subsp. enterica serovar Typhimurium", "conditions": "s9, 1.5 h, dose 150 µg"}, "[17]": {"test": "Mutagenicity in Salmonella typhimurium TA102 assessed as number of revertant colonies at 1500 ug per plate incubated for 90 mins in presence of S9 fraction by AMES test (reference value: 130.00 +/- 6.93)", "format": "toxicity, subcellular, Salmonella enterica subsp. enterica serovar Typhimurium", "conditions": "s9, 1.5 h, dose 1500 µg"}, "[18]": {"test": "Mutagenicity in Salmonella typhimurium TA102 assessed as number of revertant colonies at 5000 ug per plate incubated for 90 mins in presence of S9 fraction by AMES test (reference value: 130.00 +/- 6.93)", "format": "toxicity, subcellular, Salmonella enterica subsp. enterica serovar Typhimurium", "conditions": "s9, 1.5 h, dose 5000 µg"}, "[19]": {"test": "Mutagenicity in Salmonella typhimurium TA98 assessed as mutagenic index ratio at 50 ug per plate incubated for 90 mins in presence of S9 fraction by AMES test", "format": "toxicity, subcellular, Salmonella enterica subsp. enterica serovar Typhimurium", "conditions": "s9, 1.5 h, dose 50 µg"}, "[20]": {"test": "Mutagenicity in Salmonella typhimurium TA98 assessed as mutagenic index ratio at 150 ug per plate incubated for 90 mins in presence of S9 fraction by AMES test", "format": "toxicity, subcellular, Salmonella enterica subsp. enterica serovar Typhimurium", "conditions": "s9, 1.5 h, dose 150 µg"}, "[21]": {"test": "Mutagenicity in Salmonella typhimurium TA98 assessed as mutagenic index ratio at 500 ug per plate incubated for 90 mins in presence of S9 fraction by AMES test", "format": "toxicity, subcellular, Salmonella enterica subsp. enterica serovar Typhimurium", "conditions": "s9, 1.5 h, dose 500 µg"}, "[22]": {"test": "Mutagenicity in Salmonella typhimurium TA98 assessed as mutagenic index ratio at 1500 ug per plate incubated for 90 mins in presence of S9 fraction by AMES test", "format": "toxicity, subcellular, Salmonella enterica subsp. enterica serovar Typhimurium", "conditions": "s9, 1.5 h, dose 1500 µg"}, "[23]": {"test": "Mutagenicity in Salmonella typhimurium TA100 assessed as mutagenic index ratio at 5000 ug per plate incubated for 90 mins by AMES test", "format": "toxicity, Salmonella enterica subsp. enterica serovar Typhimurium", "conditions": "in vivo, 1.5 h, dose 5000 µg"}, "[24]": {"test": "Mutagenicity in Salmonella typhimurium TA100 assessed as mutagenic index ratio at 150 ug per plate incubated for 90 mins in presence of S9 fraction by AMES test", "format": "toxicity, subcellular, Salmonella enterica subsp. enterica serovar Typhimurium", "conditions": "s9, 1.5 h, dose 150 µg"}, "[25]": {"test": "Mutagenicity in Salmonella typhimurium TA100 assessed as mutagenic index ratio at 500 ug per plate incubated for 90 mins in presence of S9 fraction by AMES test", "format": "toxicity, subcellular, Salmonella enterica subsp. enterica serovar Typhimurium", "conditions": "s9, 1.5 h, dose 500 µg"}, "[26]": {"test": "Mutagenicity in Salmonella typhimurium TA100 assessed as mutagenic index ratio at 1500 ug per plate incubated for 90 mins in presence of S9 fraction by AMES test", "format": "toxicity, subcellular, Salmonella enterica subsp. enterica serovar Typhimurium", "conditions": "s9, 1.5 h, dose 1500 µg"}, "[27]": {"test": "Mutagenicity in Salmonella typhimurium TA102 assessed as mutagenic index ratio at 50 ug per plate incubated for 90 mins by AMES test", "format": "toxicity, Salmonella enterica subsp. enterica serovar Typhimurium", "conditions": "in vivo, 1.5 h, dose 50 µg"}, "[28]": {"test": "Mutagenicity in Salmonella typhimurium TA102 assessed as mutagenic index ratio at 150 ug per plate incubated for 90 mins by AMES test", "format": "toxicity, Salmonella enterica subsp. enterica serovar Typhimurium", "conditions": "in vivo, 1.5 h, dose 150 µg"}, "[29]": {"test": "Mutagenicity in Salmonella typhimurium TA102 assessed as mutagenic index ratio at 500 ug per plate incubated for 90 mins by AMES test", "format": "toxicity, Salmonella enterica subsp. enterica serovar Typhimurium", "conditions": "in vivo, 1.5 h, dose 500 µg"}, "[30]": {"test": "Mutagenicity in Salmonella typhimurium TA102 assessed as mutagenic index ratio at 1500 ug per plate incubated for 90 mins by AMES test", "format": "toxicity, Salmonella enterica subsp. enterica serovar Typhimurium", "conditions": "in vivo, 1.5 h, dose 1500 µg"}, "[31]": {"test": "Mutagenicity in Salmonella typhimurium TA102 assessed as mutagenic index ratio at 150 ug per plate incubated for 90 mins in presence of S9 fraction by AMES test", "format": "toxicity, subcellular, Salmonella enterica subsp. enterica serovar Typhimurium", "conditions": "s9, 1.5 h, dose 150 µg"}}, "data": [{"molecule": "O=[N+]([O-])c1ncn(Cc2cn(-c3ccc(OC(F)(F)F)cc3)nn2)n1", "values": [{"measurement": "IC50", "setting": "Trypanosoma cruzi", "value": 90, "unit": "nM"}, {"measurement": "CC50 at 72 h", "setting": "[1]", "value": "> 50000", "unit": "nM"}, {"measurement": "selectivity ratio", "setting": "[2]", "value": "> 556"}, {"measurement": "pIC50", "setting": "[3]", "value": 7.04}, {"measurement": "Activity", "setting": "[4]", "value": 18.33}, {"measurement": "Activity", "setting": "[5]", "value": 24.67}, {"measurement": "Activity", "setting": "[6]", "value": 21.33}, {"measurement": "Activity", "setting": "[7]", "value": 20.33}, {"measurement": "Activity", "setting": "[8]", "value": 25}, {"measurement": "Activity", "setting": "[9]", "value": 15.33}, {"measurement": "Activity", "setting": "[10]", "value": 80.67}, {"measurement": "Activity", "setting": "[11]", "value": 98.33}, {"measurement": "Activity", "setting": "[12]", "value": 47}, {"measurement": "Activity", "setting": "[13]", "value": 159.67}, {"measurement": "Activity", "setting": "[14]", "value": 141}, {"measurement": "Activity", "setting": "[15]", "value": 162.67}, {"measurement": "Activity", "setting": "[16]", "value": 172.33}, {"measurement": "Activity", "setting": "[17]", "value": 178.67}, {"measurement": "Activity", "setting": "[18]", "value": 131}, {"measurement": "Ratio", "setting": "[19]", "value": 1}, {"measurement": "Ratio", "setting": "[20]", "value": 1.1}, {"measurement": "Ratio", "setting": "[21]", "value": 1.1}, {"measurement": "Ratio", "setting": "[22]", "value": 1}, {"measurement": "Ratio", "setting": "[23]", "value": 0.9}, {"measurement": "Ratio", "setting": "[24]", "value": 0.9}, {"measurement": "Ratio", "setting": "[25]", "value": 1}, {"measurement": "Ratio", "setting": "[26]", "value": 0.8}, {"measurement": "Ratio", "setting": "[27]", "value": 1.9}, {"measurement": "Ratio", "setting": "[28]", "value": 1.4}, {"measurement": "Ratio", "setting": "[29]", "value": 1.4}, {"measurement": "Ratio", "setting": "[30]", "value": 1.2}, {"measurement": "Ratio", "setting": "[31]", "value": 1.3}]}]}
